Assays:
HaCaT cells = format: cell-based; conditions: 48 h, MTT
Procedure: HaCaT cells (CLS Cell Lines Service, Germany) were cultured in Dulbecco's modified eagle medium (DMEM) medium supplemented with 4.5 g/L glucose, 2 mM L-glutamine and 10% fetal bovine serum. Cells were seeded on 24- or 12-well plates and grown to 80% confluence for the following assays.
Exponentially growing cells of passage #3-6 (3000 cells/well in 100 μl medium) were plated in 96-well plates overnight to allow cell attachment (80% confluency) and then exposed to different concentrations of diacerein (0.1, 1, 10 μM) or berberine (0.1, 1, 10 μM) or clobetasol propionate (0.1, 1, 10 μM), and either 2 mg/mL of Healthy-IgG BP-IgG or Specific-IgG at 37° C. for 48 h.
Following drug treatment, the cell culture media were gently removed. Cells were then gently washed three times with warm medium to remove any de-attached and dead cells. Cells were incubated with MTT reagent in cell culture medium at a final concentration of 1.0 mg/mL for 2 h. The quantity of formazan (presumably directly proportional to the number of viable cells) was measured by recording changes in absorbance at 570 nm using an ELISA plate reader.

IL-6 = assay: Pro-inflammatory cytokine measurement: IL-6 in culture supernatant by ELISA; format: cell-based, human; conditions: HaCaT cells treated with BP-IgG or specific anti-BP180 IgG 2 mg/mL; 0.1, 1, 10 μM; 48 h
Procedure: (§1) HaCaT cells (CLS Cell Lines Service, Germany) were cultured in Dulbecco's modified eagle medium (DMEM) medium supplemented with 4.5 g/L glucose, 2 mM L-glutamine and 10% fetal bovine serum. Cells were seeded on 24- or 12-well plates and grown to 80% confluence for the following assays. Cytokine measurement was conducted based on previous studies. Briefly, cells were incubated with medium alone or with 2 mg/mL purified BP-IgG or Specific-IgG and cultured in absence or presence of diacerein or berberine or clobetasol propionate (0.1, 1, and 10 μM) and culture supernatants were collected after 48 h of incubation, and stored for analysis at −20° C. IL-6 and IL-8 levels were analyzed in cell culture supernatants by ELISA (BD Biosciences) according to the manufacturer's instructions.

IL-8 = assay: Pro-inflammatory cytokine measurement: IL-8 in culture supernatant by ELISA; format: cell-based, human; conditions: 48 h
Procedure: as §1

IL-6 mRNA = assay: Quantitation of IL-6 mRNA expression by quantitative real-time PCR; format: cell-based, human; conditions: BP IgG-treated HaCaT cells; 0.1, 1, 10 μM; 48 h; RT-qPCR normalized to GAPDH
Procedure: (§2) IL-6 and IL-8 messenger RNA (mRNA) levels were quantitated using quantitative real-time polymerase chain reaction (qPCR) as reported previously. BP IgG-treated HaCaT cells were cultured with or without diacerein or berberine or clobetasol propionate for 48 h. Total RNA was isolated from cultured HaCaT cells using TRIzol reagent (LifeTechnologies) according to the manufacturer's instruction. Complementary DNA (cDNA) was reverse-transcribed from isolated RNA by incubating 1 μg of RNA with the RevertAid First Strand cDNA Synthesis Kit (Thermo Scientific) following the manufacturer's instructions. Quantitative RT-PCR was performed in a Mastercycler (Eppendorf) using SYBR® Select Master Mix (Life Technologies). PCR mixtures contained 0.5 μM of each forward and reverse primers. Each reaction mixture was subjected to 2 min at 50° C. and 2 min at 95° C. followed by 40 cycles with 15 seconds at 95° C. and 1 min at 60° C. Data were normalized to the housekeeping gene glyceraldehyde-3-phosphate dehydrogenase (GAPDH). The primers used in RT-PCR were as follows: IL-8 messenger RNA (mRNA), forward, 5′-ACCGGAAGGAACCATCTCAC-3′, and reverse, 5′-AAACTGCACCTTCACACAGAG-3′ and IL-6 messenger RNA (mRNA), forward, 5′-GGTACATCCTCGACGGCATCT-3′, and reverse, 5′-GTGCCTCTTTGCTGCTTTCAC-3′ and GAPDH, forward, 5′-ACAACTTTGGTATCGTGGAAGG-3′, and reverse, 5′-GCC ATC ACG CCA CAG TTT-3′.

IL-8 mRNA = assay: Quantitation of IL-8 mRNA expression by quantitative real-time PCR; format: cell-based, human; conditions: BP IgG-treated HaCaT cells; 0.1, 1, 10 μM; 48 h; RT-qPCR normalized to GAPDH
Procedure: as §2

BP180 = assay: Immunofluorescence study of BP180 internalization in keratinocytes treated with BP-IgG; format: cell-based, human; conditions: 0.1 to 10 μM, confocal microscopy
Procedure: For this BP180 internalization study, IgG purification from BP patients and cell culture treated with different IgG and drugs (diacerein or berberine) were performed according to the procedures described in Example 1. Keratinocytes grown on glass coverslips were fixed in 4% paraformaldehyde, washed thoroughly in PBS, and permeabilized in 0.1% (v/v) Triton X-100 in PBS for 10 minutes. Primary antibodies were overlaid onto the cells, and the preparations were incubated at room temperature for 1 hour. The cells on coverslips were washed with PBS, and fluorescence-conjugated secondary antibodies were applied for 1 hour at room temperature. After being washed with PBS, coverslips were mounted onto slides. The fluorescence color for cell nucleus was dark blue and BP180 was bright green. All preparations were examined by the confocal microscopy.

Question: COc1ccc2cc3[n+](cc2c1OC)CCc1cc2c(cc1-3)OCO2 [berberine, 5,6-dihydro-9,10-dimethoxybenzo(g)-1,3-benzodioxolo (5,6-a) quinolizinium] was tested. Which “cytotoxicity to HaCaT cells” value (HaCaT cells; treatment at 0.1-10 μM) did it give?
Answer: Its value is “did not have significant cytotoxicity”.

Question: With CC(=O)Oc1cccc2c1C(=O)c1c(OC(C)=O)cc(C(=O)O)cc1C2=O [diacerein, 4,5-bis (acetyloxy) 9, 10-dihydro-4,5-dihydroxy-9, 10-dioxo-2-anthracenecarboxylic acid] as the compound, how does the “HaCaT viability in presence of IgG” value (HaCaT cells; 10 μM, with Healthy-IgG, BP-IgG or BP Specific-IgG) read?
Answer: Its value is “still significantly reduced HaCaT viability”.

Question: And the HaCaT viability (HaCaT cells; treatment at 0.1-10 μM)?
Answer: The HaCaT viability was 50%.

Question: And the “cytotoxicity to HaCaT cells” value (HaCaT cells; treatment at 0.1-10 μM)?
Answer: The value was “significant cytotoxicity”.

Question: What about the “secretion of IL-6” value (IL-6) of the same compound?
Answer: The value was “significantly reduced secretion of IL-6”.

Question: What about the “secretion of IL-8” value (IL-8; 0.1 μM, HaCaT cells treated with specific anti-BP180 IgG) of the same compound?
Answer: The value was “did not reduce the secretion of IL-8”.

Question: What about the “secretion of IL-8” value (IL-8; 1 or 10 μM, HaCaT cells treated with specific anti-BP180 IgG) of the same compound?
Answer: The value was “inhibitory effects of diacerein on IL-8 secretion were noted only at concentrations at 1 or 10 μM”.

Question: What about the “IL-6 mRNA expression levels” value (IL-6 mRNA) of the same compound?
Answer: Its value is “dose-dependent inhibitory effects on IL-6 mRNA expression levels”.

Question: And the “IL-8 mRNA expression levels” value (IL-8 mRNA)?
Answer: The value was “inhibitory effects on IL-8 mRNA only at 10 μM”.

Question: What about the “membranous localization of BP180 (BP180 internalization)” value (BP180) of the same compound?
Answer: The value was “membranous localization of BP180 was restored”.

Question: For CCC(=O)O[C@]1(C(=O)CCl)[C@@H](C)C[C@H]2[C@@H]3CCC4=CC(=O)C=C[C@]4(C)[C@@]3(F)[C@@H](O)C[C@@]21C [clobetasol propionate], which “cytotoxicity to HaCaT cells” value (HaCaT cells; treatment at 0.1-10 μM) is on record?
Answer: The value was “did not have significant cytotoxicity”.

Question: What about the “secretion of IL-6” value (IL-6) of the same compound?
Answer: The value was “reduced IL-6 (FIG. 1a) and IL-8 secretion (FIG. 1b) in a dose-dependent manner”.

Question: What about the “secretion of IL-8” value (IL-8; HaCaT cells treated with BP-IgG or Specific-IgG 2 mg/mL, 0.1, 1, 10 μM) of the same compound?
Answer: Its value is “reduced IL-6 (FIG. 1a) and IL-8 secretion (FIG. 1b) in a dose-dependent manner”.

Question: What about the “IL-6 mRNA expression levels” value (IL-6 mRNA) of the same compound?
Answer: Its value is “significantly reduced the IL-6 and IL-8 mRNA expression levels”.

Question: What about the “IL-8 mRNA expression levels” value (IL-8 mRNA) of the same compound?
Answer: The value was “significantly reduced the IL-6 and IL-8 mRNA expression levels”.
